Experiments:
Format in all cases: cell-based
TMD8 = test: Cell viability, additional cell lines (CellTiter-Glo), TMD8; conditions: Homo sapiens, TMD8, 72 h; read-out: Absolute IC50
Method: (§1) Tumor cells are grown at 37° C. in a humidified atmosphere with 5% CO2 in RPMI 1640 medium, supplemented with 10% (v/v) fetal calf serum and 50 μg/ml gentamicin for up to 20 passages, and are passaged once or twice weekly.
(§2) Cells are harvested from exponential phase cultures, counted and plated in 96 well flat-bottom microtiter plates at a cell density depending on the cell line's growth rate (4,000-20,000 cells/well depending on the cell line's growth rate, up to 60,000 for hematological cancer cell lines) in RPMI 1640 medium supplemented with 10% (v/v) fetal calf serum and 50 μg/ml gentamicin (140 μl/well). Cultures are incubated at 37° C. and 5% CO2 in a humidified atmosphere. After 24 h, 10 μl of test compounds or control medium are added and left on the cells for another 72 h. Compounds are serially diluted in DMSO, transferred in cell culture medium, and added to the assay plates by using a Tecan Freedom EVO 200 robotic platform. The DMSO concentration is kept constant at 0.3% v/v across the assay plate. Viability of cells is quantified by the CellTiter-Glo® cell viability assay (Promega G8462). After incubation of cells, 100 μl of CellTiter-Glo® One Solution Assay reagent are added to each well. Plates are shaken for 2 minutes to induce cell lysis and incubated for 20 minutes prior to reading luminescence (LU) by using the EnVision® Xcite multilabel plate reader (Perkin Elmer). […]

H929 cells = test: Cell viability CTG assay, H929; conditions: Homo sapiens, NCI-H929; H929, 72 h, 0.001-50 μM, numeric values; read-out: Geomean absolute IC50 by molecule, 72 H
Outline: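 Cells exposed to compound at 0.25% v/v DMSO for 72 h (37° C., 5% CO2). ATP quantified by CellTiter-Glo luminescence, normalized to DMSO control. Absolute IC50 (T/C=50%) by non-linear regression on duplicate means; geometric mean used for averages.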

SNU-398 cells = test: Cell viability CTG assay, SNU-398; conditions: Homo sapiens; SNU-398, 72 h, 0.001-50 μM, FIG. 6C
Method: The effect of various compounds of the invention and various reference compounds on cell viability in various cell lines was investigated, using the Cell Viability—CTG Assay Protocol below. Hep3B, Kelly, H929, KG-1 and SNU-398 cells were maintained in respective cell medium (see Table 8, below). The cells were seeded on the 96-well or 384-white plates, and the compounds to be tested were added at the desired concentration range. Compounds are diluted in DMSO, and the DMSO concentration is kept constant at 0.25% v/v across the assay plate. After 72 h incubation (37° C., 5% CO2), CellTiter-Glo® Reagent (Promega/G7570) was added to the wells. Plates are shaken for 4 minutes and incubated for 8 minutes in the dark prior to reading luminescence (LU) by using the CLARIOstar Multimode Plate Reader. The signal is proportional to the amount of ATP, which is directly proportional to the number of cells present in the culture.
Luminescence (RLU) values were normalized to DMSO control. Dose response is assessed by non-linear regression and IC50 calculation with the average of technical duplicate of percentage inhibition. IC50 values are reported as absolute IC50 values, being the concentration of test compound at the intersection of the concentration-response curves with T/C=50%. For calculation of mean IC50 values the geometric mean is used.

NCI-H929 = test: Cell viability, additional cell lines (CellTiter-Glo), NCI-H929; conditions: Homo sapiens, NCI-H929, 72 h; read-out: Absolute IC50
Method: as §1, §2

HL-60 = test: Cell viability, additional cell lines (CellTiter-Glo), HL-60; conditions: Homo sapiens, HL-60, 72 h; read-out: Absolute IC50
Method: as §1, §2

IM-9 = test: Cell viability, additional cell lines (CellTiter-Glo), IM-9; conditions: Homo sapiens, IM-9, 72 h; read-out: Absolute IC50
Method: as §1, §2

Ikaros (IKZF1) = target: T1, Ikaros (IKZF1) (Homo sapiens, UniProt Q13422+Q96SW2); test: Ikaros degradation assay, H929 cell line; conditions: NCI-H929; H929 cells, 10 uM, 24 h, numeric values; read-out: % of IKZF1 protein reduction
T1 construct: Ikaros degradation in the H929 cell line was investigated; endogenous in cells; host or cells: H929
Outline: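 Cells were exposed to test compounds over a concentration range for 24 h at 37° C, 5% CO2, then lysed in RIPA buffer. Equal protein (BCA) was resolved by SDS-PAGE and immunoblotted. Band densitometry gave the protein levels used for evaluation.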

OCI-AML2 = test: Cell viability, additional cell lines (CellTiter-Glo), OCI-AML2; conditions: Homo sapiens, OCI-AML2, 72 h; read-out: Absolute IC50
Method: as §1, §2

EOL-1 = test: Cell viability, additional cell lines (CellTiter-Glo), EOL-1; conditions: Homo sapiens, EOL1; EOL-1, 72 h; read-out: Absolute IC50
Method: as §1, §2

SU-DHL-1 = test: Cell viability, additional cell lines (CellTiter-Glo), SU-DHL-1; conditions: Homo sapiens, SU-DHL-1, 72 h; read-out: Absolute IC50
Method: as §1, §2

LP-1 = test: Cell viability, additional cell lines (CellTiter-Glo), LP-1; conditions: Homo sapiens, LP-1, 72 h; read-out: Absolute IC50
Method: as §1, §2

U-937 = test: Cell viability, additional cell lines (CellTiter-Glo), U-937; conditions: Homo sapiens, U-937, 72 h; read-out: Absolute IC50
Method: as §1, §2

OPM-2 = test: Cell viability, additional cell lines (CellTiter-Glo), OPM-2; conditions: Homo sapiens, OPM-2, 72 h; read-out: Absolute IC50
Method: as §1, §2

Kasumi-1 = test: Cell viability, additional cell lines (CellTiter-Glo), Kasumi-1; conditions: Homo sapiens; Kasumi-1, 72 h; read-out: Absolute IC50
Method: as §1, §2

U-266 = test: Cell viability, additional cell lines (CellTiter-Glo), U-266; conditions: Homo sapiens, U-266, 72 h; read-out: Absolute IC50
Method: as §1, §2

PL-21 = test: Cell viability, additional cell lines (CellTiter-Glo), PL-21; conditions: PL-21, 72 h; read-out: Absolute IC50
Method: as §1, §2

NOMO-1 = test: Cell viability, additional cell lines (CellTiter-Glo), NOMO-1; conditions: Homo sapiens, NOMO-1, 72 h; read-out: Absolute IC50
Method: as §1, §2

T1 sequence (Q13422 whole entry): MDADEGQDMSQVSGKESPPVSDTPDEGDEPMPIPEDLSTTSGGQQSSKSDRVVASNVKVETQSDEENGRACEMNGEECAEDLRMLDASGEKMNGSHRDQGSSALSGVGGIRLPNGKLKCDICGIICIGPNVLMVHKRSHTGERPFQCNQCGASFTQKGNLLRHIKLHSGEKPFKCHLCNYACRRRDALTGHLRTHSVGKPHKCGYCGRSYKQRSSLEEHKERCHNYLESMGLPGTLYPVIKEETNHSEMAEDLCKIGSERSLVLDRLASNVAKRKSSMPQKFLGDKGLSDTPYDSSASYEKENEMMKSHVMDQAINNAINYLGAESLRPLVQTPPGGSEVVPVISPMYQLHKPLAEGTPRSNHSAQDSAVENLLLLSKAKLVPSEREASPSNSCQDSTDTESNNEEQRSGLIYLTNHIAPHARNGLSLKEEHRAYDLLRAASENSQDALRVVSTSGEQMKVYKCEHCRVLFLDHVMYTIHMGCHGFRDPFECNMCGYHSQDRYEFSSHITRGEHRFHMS
T1 sequence (Q96SW2 whole entry): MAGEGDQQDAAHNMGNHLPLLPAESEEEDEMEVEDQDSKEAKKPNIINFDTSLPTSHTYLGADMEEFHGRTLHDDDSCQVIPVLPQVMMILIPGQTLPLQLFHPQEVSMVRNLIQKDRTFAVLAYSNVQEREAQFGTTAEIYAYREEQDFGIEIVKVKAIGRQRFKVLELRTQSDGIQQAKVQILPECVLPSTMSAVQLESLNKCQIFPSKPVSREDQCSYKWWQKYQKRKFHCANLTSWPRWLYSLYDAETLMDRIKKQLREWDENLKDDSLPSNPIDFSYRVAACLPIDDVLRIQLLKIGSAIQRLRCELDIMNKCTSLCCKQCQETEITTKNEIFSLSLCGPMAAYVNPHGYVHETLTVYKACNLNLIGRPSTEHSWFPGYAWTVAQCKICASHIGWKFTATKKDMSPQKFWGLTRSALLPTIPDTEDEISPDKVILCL
T1 sequence (Q16531 whole entry partner): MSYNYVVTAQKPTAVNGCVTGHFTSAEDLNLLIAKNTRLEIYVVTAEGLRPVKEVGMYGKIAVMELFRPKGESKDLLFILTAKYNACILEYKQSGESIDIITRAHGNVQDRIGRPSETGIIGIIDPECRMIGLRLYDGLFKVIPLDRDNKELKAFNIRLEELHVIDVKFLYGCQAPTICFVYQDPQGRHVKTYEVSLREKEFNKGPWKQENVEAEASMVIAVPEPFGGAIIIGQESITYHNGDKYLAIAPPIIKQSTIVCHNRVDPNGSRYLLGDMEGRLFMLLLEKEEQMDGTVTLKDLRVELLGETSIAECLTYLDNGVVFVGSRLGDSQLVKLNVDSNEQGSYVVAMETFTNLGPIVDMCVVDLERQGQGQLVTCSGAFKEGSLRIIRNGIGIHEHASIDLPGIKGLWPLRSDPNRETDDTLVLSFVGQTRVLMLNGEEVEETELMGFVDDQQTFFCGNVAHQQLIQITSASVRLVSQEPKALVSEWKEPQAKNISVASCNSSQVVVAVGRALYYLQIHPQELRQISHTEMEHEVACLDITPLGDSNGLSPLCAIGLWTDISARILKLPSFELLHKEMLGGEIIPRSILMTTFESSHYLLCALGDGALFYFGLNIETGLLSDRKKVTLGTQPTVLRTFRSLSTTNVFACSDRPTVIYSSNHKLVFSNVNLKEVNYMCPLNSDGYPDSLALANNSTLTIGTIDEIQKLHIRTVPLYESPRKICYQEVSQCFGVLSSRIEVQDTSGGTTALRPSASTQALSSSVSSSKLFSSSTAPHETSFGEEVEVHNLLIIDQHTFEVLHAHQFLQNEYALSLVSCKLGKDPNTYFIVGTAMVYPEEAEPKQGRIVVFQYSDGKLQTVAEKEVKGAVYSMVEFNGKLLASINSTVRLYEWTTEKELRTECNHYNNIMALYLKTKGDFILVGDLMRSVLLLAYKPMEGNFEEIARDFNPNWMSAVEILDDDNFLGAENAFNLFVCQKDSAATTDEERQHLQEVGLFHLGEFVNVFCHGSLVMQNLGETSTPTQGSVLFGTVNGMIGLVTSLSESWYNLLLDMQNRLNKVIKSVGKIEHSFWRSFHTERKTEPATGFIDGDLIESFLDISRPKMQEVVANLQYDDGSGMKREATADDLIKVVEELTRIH

O=C1CCC(N2Cc3cc(CNC(=O)C(F)(F)c4ccc(Cl)cc4)ccc3C2=O)C(=O)N1 (centres unmarked) [CC-90009, reference compound]
IC50 (TMD8): 264 nM
IC50 (H929 cells): 189 nM
IC50 (SNU-398 cells): > 9900 nM
IC50 (NCI-H929): 399 nM
IC50 (HL-60): 3 nM
IC50 (IM-9): 85 nM
inhibition at 10 µM (Ikaros (IKZF1)): 33%
IC50 (OCI-AML2): 18 nM
IC50 (EOL-1): 2 nM
IC50 (SU-DHL-1): 153 nM
IC50 (LP-1): 28 nM
IC50 (U-937): 78 nM
IC50 (OPM-2): 74 nM
IC50 (Kasumi-1): 35 nM
IC50 (U-266): 56 nM
IC50 (PL-21): 10 nM
IC50 (NOMO-1): 40 nM

Reference: patent publication US20240294489A1 (Captor Therapeutics S.A., priority 2020, published 2024)
